Measured values reported in patent US10286022B2, “Medicinal composition of extract of seed of emblica officinalis and method of preparing the same” (priority 2013, dated 2019).

Legend:
[1] = tested on: Triton WR 1339 induced dyslipidemia in Albino rats (Sprague Dawley strain); test: Hypolipidemic activity compared with other amla extracts, Triton WR 1339 model (Example 20); type: in vivo, rat
Experimental: Forty eight male Albino rats (Sprague Dawley strain) weighing approximate 250-300 gm were selected for the study. The animals were kept in the animal house maintained at temp 24±2° C., 65% relative humidity and 12 hr light/dark cycle. The rats were acclimatized for two weeks and during this period they had access to standard pellet diet and water ad libitum. After two weeks of acclimatization, all the rats were fasted overnight before injecting Triton WR 1339 (Tyloxapol) and administration of test extracts/standard. The animals were divided into eight groups. Following treatment was given to overnight fasted rats: • Group I: Normal control (vehicle only). • Group II: Triton WR 1339 (300 mg/kg, intraperitoneal). • Group III: Triton WR 1339 (300 mg/kg, intraperitoneal) followed by amla seed extract prepared as per example 1 (2.5 mg/kg, per oral). • Group IV: Triton WR 1339 (300 mg/kg, intraperitoneal) followed by amla extract prepared as per example 3 (40 mg/kg, per oral). • Group V: Triton WR 1339 (300 mg/kg, intraperitoneal) followed by amla extract prepared as per example 4 (40 mg/kg, per oral). • Group VI: Triton WR 1339 (300 mg/kg, intraperitoneal) followed by amla extract prepared as per example 5 (40 mg/kg, per oral). • Group VII: Triton WR 1339 (300 mg/kg, intraperitoneal) followed by amla extract prepared as per example 6 (40 mg/kg, per oral). • Group VIII: Triton WR 1339 (300 mg/kg, intraperitoneal) followed by atorvastatin (10 mg/kg, per oral).
(§1) The animals were deprived of food for next 24 hours but had free access to water ad libitum. After 24 hour of drug treatment 2 ml blood samples were collected from the retro orbital plexus. The blood was allowed to clot and then centrifuged at 3000 rpm for 10 min and the serum was carefully drawn and collected into separate tubes. The serum was analyzed for total cholesterol, triglycerides, high density lipoproteins (HDL), low density lipoproteins (LDL) and very low density lipoproteins (VLDL) levels using auto-analyzer.

[2] = tested on: Triton WR 1339 induced dyslipidemia in Albino rats (Sprague Dawley strain); test: Hypolipidemic activity compared with other amla extracts, Triton WR 1339 model (Example 25); type: in vivo, rat
Experimental: Forty eight male Albino rats (Sprague Dawley strain) weighing approximate 250-300 gm were selected for the study. The animals were kept in the animal house maintained at temp 24±2° C., 65% relative humidity and 12 hr light/dark cycle. The rats were acclimatized for two weeks and during this period they had access to standard pellet diet and water ad libitum. After two weeks of acclimatization, all the rats were fasted overnight before injecting Triton WR 1339 (Tyloxapol) and administration of test extracts/standard. The animals were divided into twelve groups. Following treatment was given to overnight fasted rats: • Group I: Normal control (vehicle only). • Group II: Triton WR 1339 (300 mg/kg, intraperitoneal). • Group III: Triton WR 1339 (300 mg/kg, intraperitoneal) followed by ethyl acetate of methanol extract of amla seed prepared as per example 1 (2.5 mg/kg, per oral). • Group IV: Triton WR 1339 (300 mg/kg, intraperitoneal) followed by water part of methanol extract of amla seed prepared as per example 1 (2.5 mg/kg, per oral). • Group V: Triton WR 1339 (300 mg/kg, intraperitoneal) followed by ethyl acetate extract of amla seed prepared as per example 2 (2.5 mg/kg, per oral). • Group VI: Triton WR 1339 (300 mg/kg, intraperitoneal) followed by powder of dried amla seed prepared as per example 7 (2.5 mg/kg, per oral). • Group VII: Triton WR 1339 (300 mg/kg, intraperitoneal) followed by water extract of dried amla seed powder prepared as per example 8 (2.5 mg/kg, per oral). • Group VIII: Triton WR 1339 (300 mg/kg, intraperitoneal) followed by methanol extract of dried amla seed powder prepared as per example 9 (2.5 mg/kg, per oral). • Group IX: Triton WR 1339 (300 mg/kg, intraperitoneal) followed by powder of dried amla fruit prepared as per example 10 (2.5 mg/kg, per oral). • Group X: Triton WR 1339 (300 mg/kg, intraperitoneal) followed by water extract of dried Amla fruit powder prepared as per example 11 (2.5 mg/kg, per oral). • Group XI: Triton WR 1339 (300 mg/kg, intraperitoneal) followed by methanol extract of dried amla fruit powder prepared as per example 12 (2.5 mg/kg, per oral). • Group XII: Triton WR 1339 (300 mg/kg, intraperitoneal) followed by atorvastatin (2.5 mg/kg, per oral).
as §1

[3] = 24 h after Triton i.p. + 10 mg/kg p.o.
[4] = 24 h after Triton i.p. + 2.5 mg/kg p.o.

CC(C)c1c(C(=O)Nc2ccccc2)c(-c2ccccc2)c(-c2ccc(F)cc2)n1CC[C@@H](O)C[C@@H](O)CC(=O)O [Atorvastatin]
HDL After [1, 3]: 33.84 mg/dL
LDL After [1, 3]: 55.00 mg/dL
TC After [1, 3]: 132.58 mg/dL
TG After [1, 3]: 218.66 mg/dL
VLDL After [1, 3]: 43.73 mg/dL
HDL Before ([1]; baseline, 10 mg/kg p.o. group): 35.11 mg/dL
LDL Before ([1]; baseline, 10 mg/kg p.o. group): 52.43 mg/dL
TC Before ([1]; baseline, 10 mg/kg p.o. group): 97.33 mg/dL
TG Before ([1]; baseline, 10 mg/kg p.o. group): 48.99 mg/dL
VLDL Before ([1]; baseline, 10 mg/kg p.o. group): 9.79 mg/dL
effect on cholesterol and triglyceride level ([1]; other amla extracts 40 mg/kg vs seed extract 2.5 mg/kg, atorvastatin 10 mg/kg p.o.): effective in lowering the cholesterol as well as triglyceride levels
effect on cholesterol and triglyceride levels ([2]; 2.5 mg/kg p.o.): effective in lowering the cholesterol as well as triglyceride levels
HDL After [2, 4]: 39.56 mg/dL
LDL After [2, 4]: 44.53 mg/dL
TC After [2, 4]: 123.14 mg/dL
TG After [2, 4]: 195.25 mg/dL
VLDL After [2, 4]: 39.05 mg/dL
HDL Before ([2]; baseline, 2.5 mg/kg p.o. group): 36.54 mg/dL
LDL Before ([2]; baseline, 2.5 mg/kg p.o. group): 57.99 mg/dL
TC Before ([2]; baseline, 2.5 mg/kg p.o. group): 104.44 mg/dL
TG Before ([2]; baseline, 2.5 mg/kg p.o. group): 49.54 mg/dL
VLDL Before ([2]; baseline, 2.5 mg/kg p.o. group): 9.91 mg/dL
